Values quoted from earlier work as cited in US20020010202A1, “Combinations of prostaglandins and brimonidine or derivatives thereof” (Allergan Sales, Inc., priority 1994, published 2002).

Assays:
[1] = in vivo
[2] = adjunctive to timolol in patients; statistically significant
[3] = pressure rise with microkeratomes in LASIK

Structure (SMILES) | neuroprotection in the eye [1] | adverse effects (in vivo) | duration of IOP decrease (in vivo) | mean decrease in IOP (topically active carbonic anhydrase inhibitor) | IOP-lowering effect [2] | nerve fiber thinning [3]
CC(C)(C)NC[C@H](O)COc1nsnc1N1CCOCC1 [timolol, (S)-1-tert-Butylamino-3-[(4-morpholino-1,2,5-thiadiazol-3-yl)oxy]-2-propanol] | did not exhibit neuroprotection | – | – | – | – | –
CCN[C@H]1C[C@H](C)S(=O)(=O)c2sc(S(N)(=O)=O)cc21 [MK 507] | – | blanching of the conjunctiva, minimal mydriasis and eyelid retraction | ≤ 12 h | 25% | – | –
Brc1c(NC2=NCCN2)ccc2nccnc12 [Brimonidine] | exhibited neuroprotective effects in the eye | – | – | – | about 20% | lessened or totally prevented
